Values of other authors as cited in CN102028697A, “含非离子表面活性剂的拉坦前列素滴眼液及制备方法” (SHANGHAI SINE PHARMACEUTICAL CO Ltd, priority 2009, dated 2011).

Legend:
[1] = in water

solubility [1]: 几乎不溶 | permissible time at 40℃: ≤ 8 days
Compound: CC(C)OC(=O)CCC/C=C\C[C@@H]1[C@@H](CC[C@@H](O)CCc2ccccc2)[C@H](O)C[C@@H]1O [拉坦前列素]
